Assay: xn = mol fraction of the nth substance listed
Details: 101 kPa, Liquid, x2 = 0; for speed of sound: Sing-around technique in a fixed-path interferometer; for kinematic viscosity: Vibrating wire viscometry; for mass density: Vibrating tube method

CCCCO [butan-1-ol] + OCCCCO
Details	kinematic viscosity [m2/s]	mass density [kg/m3]	speed of sound [m/s]
293.03 K	–	–	1257
298.02 K	3.24e-06	–	–
298.07 K	–	–	1239.7
298.15 K	–	805.77	–
302.47 K	2.9e-06	–	–
303.15 K	–	801.928	–
303.35 K	–	–	1221.6
308 K	2.53e-06	–	–
308.15 K	–	798.054	–
308.34 K	–	–	1204.8
312.96 K	2.25e-06	–	–
313.15 K	–	794.146	–
313.37 K	–	–	1188
318.15 K	–	790.196	–
318.37 K	–	–	1171.4
318.61 K	1.99e-06	–	–
